Experimental data taken from patent US9023847B2, “Azaheterocyclic compounds” (Merck Patent GmbH, priority 2009, dated 2015).

Biological target: T1, P70S6K (T412E mutant, Millipore) (Homo sapiens, UniProt P23443, T412E)
T1 construct: purchased Millipore
Test: p70S6K enzyme assay
Type: biochemical
Settings: class symbol; 3 nM P70S6K, 24 μM ATP; read-out: IC50 (p70S6K)
Method in brief: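 T412E-mutant P70S6K (3 nM) with 24 μM ATP and 1 μM FITC-AHA-AKRRRLSSLRA-OH S6-derived peptide in 100 mM Hepes pH 7.5, 5 mM MgCl2, 1 mM DTT, 0.015% Brij; 90 min at 25° C, EDTA stop. Phosphorylated product and substrate peptide separated and quantified by microfluidic capillary electrophoresis (Caliper LabChip 3000).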

T1 sequence (P23443 whole entry T412E): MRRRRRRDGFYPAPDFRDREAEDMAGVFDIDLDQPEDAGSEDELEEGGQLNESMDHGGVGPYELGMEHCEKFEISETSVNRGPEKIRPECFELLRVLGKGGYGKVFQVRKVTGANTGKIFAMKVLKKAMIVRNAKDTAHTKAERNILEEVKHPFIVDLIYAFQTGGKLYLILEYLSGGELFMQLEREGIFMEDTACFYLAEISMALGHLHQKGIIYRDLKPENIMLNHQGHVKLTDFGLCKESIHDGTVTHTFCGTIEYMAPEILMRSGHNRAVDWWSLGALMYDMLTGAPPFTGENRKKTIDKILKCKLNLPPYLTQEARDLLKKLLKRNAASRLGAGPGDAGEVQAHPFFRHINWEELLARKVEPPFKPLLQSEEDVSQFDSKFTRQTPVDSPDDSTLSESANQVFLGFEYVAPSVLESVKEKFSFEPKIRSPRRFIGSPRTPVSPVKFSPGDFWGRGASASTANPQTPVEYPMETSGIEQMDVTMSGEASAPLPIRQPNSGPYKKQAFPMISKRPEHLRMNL

| Compound | IC50 [nM] |
| --- | --- |
| CC(C)(C)OC(=O)N(CCNC(=O)c1occc1Nc1ncnc2[nH]ccc12)Cc1ccccc1 [Example 177] | 1000 to 10000 |
| Cc1cc(Nc2ncnc3[nH]ccc23)c(C(=O)NCc2cccc(Cl)c2)s1 [Example 178, 5-Methyl-3-(7H-pyrrolo[2,3-d]pyrimidin-4-ylamino)-thiophene-2-carboxylic acid 3-chloro-benzylamide] | 100 to 1000 |
| O=C(NCCc1cccc(Cl)c1)c1sccc1Nc1ncnc2[nH]ccc12 [Example 182, 3-(7H-Pyrrolo[2,3-d]pyrimidin-4-ylamino)-thiophene-2-carboxylic acid [2-(3-chloro-phenyl)-ethyl]-amide] | < 100 |
| O=C(NCCNCc1ccccc1)c1sccc1Nc1ncnc2[nH]ccc12 [Example 183, 3-(7H-Pyrrolo[2,3-d]pyrimidin-4-ylamino)-thiophene-2-carboxylic acid (2-benzylamino-ethyl)-amide] | < 100 |
| CC(C)(C)OC(=O)N1CCCC(NC(=O)c2sccc2Nc2ncnc3[nH]ccc23)C1 (stereo not shown) [Example 184, 3-{[3-(7H-Pyrrolo[2,3-d]pyrimidin-4-ylamino)-thiophene-2-carbonyl]-amino}-piperidine-1-carboxylic acid tert-butyl ester] | 100 to 1000 |
| CNCCNC(=O)c1sccc1Nc1ncnc2[nH]ccc12 [Example 185, 3-(7H-Pyrrolo[2,3-d]pyrimidin-4-ylamino)-thiophene-2-carboxylic acid (2-methylamino-ethyl)-amide] | 100 to 1000 |
| O=C(NC1CCCNC1)c1sccc1Nc1ncnc2[nH]ccc12 (stereo not shown) [Example 186, 3-(7H-Pyrrolo[2,3-d]pyrimidin-4-ylamino)-thiophene-2-carboxylic acid piperidin-3-ylamide] | < 100 |
| Cc1c[nH]c2ncnc(Nc3ccsc3C(=O)NCc3cccc(Cl)c3)c12 [Example 187, 3-(5-Methyl-7H-pyrrolo[2,3-d]pyrimidin-4-ylamino)-thiophene-2-carboxylic acid 3-chloro-benzylamide] | < 100 |

The next lines start with the values.

| IC50 [nM] | Compound |
| --- | --- |
| < 100 | O=C(NCCc1cccc(F)c1)c1sccc1Nc1ncnc2[nH]ccc12 [Example 175, 3-(7H-Pyrrolo[2,3-d]pyrimidin-4-ylamino)-thiophene-2-carboxylic acid [2-(3-fluorophenyl)-ethyl]-amide] |
| < 100 | O=C(NCc1cccc(Cl)c1)c1occc1Nc1ncnc2[nH]ccc12 [Example 176, 3-(7H-Pyrrolo[2,3-d]pyrimidin-4-ylamino)-furan-2-carboxylic acid 3-chloro-benzylamide] |
| < 100 | O=C(NCCc1ccc(F)cc1)c1sccc1Nc1ncnc2[nH]ccc12 [Example 179, 3-(7H-Pyrrolo[2,3-d]pyrimidin-4-ylamino)-thiophene-2-carboxylic acid [2-(4-fluoro-phenyl)-ethyl]-amide] |
| < 100 | O=C(NCCc1ccc(Br)cc1)c1sccc1Nc1ncnc2[nH]ccc12 [Example 180, 3-(7H-Pyrrolo[2,3-d]pyrimidin-4-ylamino)-thiophene-2-carboxylic acid [2-(4-bromo-phenyl)-ethyl]-amide] |
| < 100 | Cc1ccccc1CCNC(=O)c1sccc1Nc1ncnc2[nH]ccc12 [Example 181, 3-(7H-Pyrrolo[2,3-d]pyrimidin-4-ylamino)-thiophene-2-carboxylic acid (2-o-tolyl-ethyl)-amide] |
